In patent publication US4322439A, “ω-[2-(N-Lower alkyl-benzamido)-phenyl]-alkanoic acids, their use, and medicaments containing them” (BYK Gulden Lomberg Chemische Fabrik GmbH, priority 1978, dated 1982):
Where two headings read alike, the source gives them in different places.

How the values were obtained:
[1] = test system: fasting, metabolically healthy rats; test: Blood glucose determination after single oral application (fasting, metabolically healthy rats); assay type: in vivo, Sprague-Dawley rats; settings: for ED50: read-out: B: ED50 (dose which effects a lowering of the blood glucose concentration by at least 15% in 50% of the animals); for A: Change of the blood glucose concentration (maximal, with reference to control animals): single oral administration 0.6 to 1.0 mmole/kg, maximal change within 24 hours
Method: In Table I there are reproduced investigations of the influence of representatives of the compounds according to the invention on the blood glucose concentration of fasting, metabolically healthy rats after single oral administration of substance of 0.6 to 1.0 mmole/kg body weight within 24 hours. Column A states in each case the maximal lowering in % with reference to the control group within 24 hours after application of the compounds.
1. Blood Glucose Determination After Single Oral Application
Young male Sprague-Dawley rats (body weight 160-200 g) are used. The animals are kept in makralon cages with up to 5 animals per cage [room-temperature 23° C., humidity of the atmosphere 55%, fixed day/night rhythm (12/12 h), rat standard diet Altromin^R ].
Food is withdrawn from the animals 20-22 hours before the taking of the 1st blood sample. Water uptake occurs ad libitum. Blood samples are taken at intervals of 0, 2, 6 and 24 hours through puncture from the postorbital plexus.
After deproteinisation with perchloric acid, the blood glucose determination is effected by means of the enzymatic HK/G-6-POH method according to R. Richterich [Klinische Chemie, Theorie und Praxis, 3rd Edition, 1971, S. Karger Verlag, Zuerich-Basle, page 275].
For comparison, in each case a control group treated with pure solvent is also investigated.

[2] = test system: isolatedly perfused rat liver; test: Inhibition of glucose formation (from lactate and pyruvate) on the isolatedly perfused rat liver; design: species or system Sprague-Dawley rats; settings: for D: ID50 (inhibition of the glucose formation from lactate and pyruvate by 50%): isolatedly perfused rat liver, concentration in the perfusate
Method: The values in column D show the concentrations (ID50 mmol/l) of the substances in the perfusate, which bring about on the isolatedly perfused rat liver an inhibition of the glucose formation from lactat and pyruvat by 50%.
2. Inhibition of Glucose Formation on the Isolatedly Perfused Rat Liver
Young male Sprague-Dawley rats (160-200 g) are used. The animals are kept as described under 1.
Food is withdrawn from the animals 20-22 hours before the operation. Water uptake occurs ad libitum. Operation and perfusion of the liver are effected according to the technique of R. Scholz et al. [Eur. J. Biochem. 38 (1973) 64-72]. As perfusion liquids, Krebs-Henseleit biocarbonate buffer (pH 7.4) is used which is saturated with an oxygen/carbon dioxide mixture (95/5) and contains 1.6 mmoles/liter L-lactates and 0.2 mmole/liter pyruvate. The perfusion liquid is pumped into the liver via a cannula introduced into the portal vein. The perfusion liquid emerging is collected via a cannula introduced into the vena cava and then taken past an oxygen electrode. The liver is perfused for about 2 hours. The test compounds are infused from the 32nd to 80th minute of the perfusion, with increasing concentrations (0.01, 0.03, 0.10 mmol/l).
Samples of the emerged perfusion liquid are collected at one-minute intervals and analysed for glucose, lactate and pyruvate according to enzymatic standard methods. The oxygen content is continuously determined by means of a platinum electrode. The check constants (ID50) stated in Table I refer to the state which exists before and after addition of the compounds; the changes caused alone through lactate and pyruvate were set at 100%.

[3] = in vivo; settings: mouse
Method: 3. Determination of the toxicity
The toxicity investigations were carried out on female NMRI mice (body weight 22-26 g). The animals (5 animals per dose) receive, 18 hours before the treatment, the food (Altromin®) reduced to 50 g/50 animals and water ad libitum. Various doses of the substances are administered per os or intraperitoneal (volume 20 ml/kg). The duration of observation is 7 days. The DL50, i.e. the dose at which 50% of the animals die, is determined graphically from the dose effect curve.

[4] = rat, single oral administration, with reference to control group
[5] = ip, i.p., read-out: C: LD50 (i.p.)

SMILES | ED50 ([1]; Rattus norvegicus, po) | A: Change of the blood glucose concentration (maximal, with reference to control animals) ([1]; rat) | inhibition of the glucose formation from lactate and pyruvate in the liver (in words) [2] | D: ID50 (inhibition of the glucose formation from lactate and pyruvate by 50%) [2] | ED50 [1, 4] | LD50 at 168 h ([3]; po, per os, read-out: C: LD50) | LD50 at 168 h [3, 5]
CCCCNC(=N)NC(=N)N [Serial No. 1, buformin, reference compound] | 227 mg/kg | -20% | no inhibition | ineffective |  |  | 
[H]/N=C(/N)N/C(=N/[H])NCCc1ccccc1 [Serial No. 2, phenformin] |  | -2% | no inhibition | ineffective |  |  | 
CN(C(=O)c1ccccc1)c1ccccc1CCCC(=O)O [Serial No. 3, 4-[2-(N-methylbenzamido)-phenyl]-butyric acid] |  | -27% |  |  | 205 mg/kg |  | 
CN(C(=O)c1ccc(Cl)cc1)c1ccccc1CCC(=O)O [Serial No. 4, 3-[2-(N-methyl-4-chlorobenzamido)-phenyl]-propionic acid] |  | -16% |  |  | 426 mg/kg |  | 
CN(C(=O)c1ccc(Cl)c(Cl)c1)c1ccccc1CCC(=O)O [Serial No. 5, 3-[2-(N-methyl-3,4-dichlorobenzamido)-phenyl]-propionic acid] |  | -11% |  |  | 363 mg/kg | 1100 mg/kg | 
CN(C(=O)c1ccccc1)c1ccccc1CCC(=O)O [Serial No. 6, 3-[2-(N-methylbenzamido)-phenyl]-propionic acid] |  | -26% |  |  | 221 mg/kg | 970 mg/kg | 
CN(C(=O)c1ccc(Cl)c(Cl)c1)c1ccc(Cl)cc1CCC(=O)O [Serial No. 7, 3-[5-chloro-2-(N-methyl-3,4-dichlorobenzamido)-phenyl]-propionic acid] |  | -15% |  |  |  | > 1000 mg/kg | 
CN(C(=O)c1cccc(C(F)(F)F)c1)c1ccc(Cl)cc1CCC(=O)O [Serial No. 8, 3-[5-chloro-2-(N-methyl-3-trifluoromethylbenzamido)-phenyl]-propionic acid] |  | -26% |  |  | 185 mg/kg | > 1000 mg/kg | 
CN(C(=O)c1ccc(Cl)cc1)c1ccccc1CCCC(=O)O [Serial No. 9, 4-[2-(N-methyl-4-chlorobenzamido)-phenyl]-butyric acid] |  | -24% |  |  | 103 mg/kg | > 1000 mg/kg | 
CN(C(=O)c1ccc(Cl)c(Cl)c1)c1ccccc1CCCC(=O)O [Serial No. 10, 4-[2-(N-methyl-3,4-dichlorobenzamido)-phenyl]-butyric acid] |  | -17% |  |  | 198 mg/kg |  | 250 mg/kg
CN(C(=O)c1ccc(Cl)cc1Cl)c1ccccc1CCCC(=O)O [Serial No. 11, 4-[2-(N-methyl-2,4-dichlorobenzamido)-phenyl]-butyric acid] |  | -17% |  |  | 245 mg/kg | > 1000 mg/kg | 
CN(C(=O)c1cccc(C(F)(F)F)c1)c1ccccc1CCCC(=O)O [Serial No. 12, 4-[2-(N-methyl-3-trifluoromethylbenzamido)-phenyl]-butyric acid] |  | -20% |  |  | 278 mg/kg |  | 150 mg/kg
COc1cccc(N(C)C(=O)c2ccc(Cl)cc2)c1CCCC(=O)O [Serial No. 13, 4-[6-methoxy-2-(N-methyl-4-chlorobenzamido)-phenyl]-butyric acid] |  | -14% |  |  | > 500 mg/kg |  | 
COc1ccc(N(C)C(=O)c2ccc(Cl)c(Cl)c2)c(CCCC(=O)O)c1 [Serial No. 14, 4-[5-methoxy-2-(N-methyl-3,4-dichloro-benzamido)-phenyl]-butyric acid] |  | -21% |  |  |  |  | 
CN(C(=O)c1ccc(Cl)c(Cl)c1)c1ccccc1CCCCC(=O)O [Serial No. 15, 5-[2-(N-methyl-3,4-dichlorobenzamido)-phenyl]-valeric acid] |  | -5% |  |  | > 700 mg/kg |  | 
